According to PubChem BioAssay (NCI):
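Values below derive from 48-hour exposures of cells grown in 96-well plates, with endpoints linearly interpolated between the two concentrations bracketing the appropriate inhibition level. GI50 marks 50% less growth. The concentration for full growth arrest is given as TGI.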

Assays:
Assay in all cases: NCI tumour cell line growth inhibition, 48 h; in the data active = GI50 below about 0.43 µM; inactive = the rest
[1] = test system: 786-0 renal
[2] = test system: A498 renal
[3] = test system: A549 NSCLC
[4] = test system: ACHN renal
[5] = test system: BT-549 breast
[6] = test system: CCRF-CEM leukemia
[7] = test system: COLO 205 colon
[8] = test system: DU-145 prostate
[9] = test system: EKVX NSCLC
[10] = test system: HCC-2998 colon
[11] = test system: HCT-116 colon
[12] = test system: HCT-15 colon
[13] = test system: HL-60(TB) leukemia
[14] = test system: HOP-62 NSCLC
[15] = test system: HOP-92 NSCLC
[16] = test system: HS 578T breast
[17] = test system: HT29 colon
[18] = test system: IGROV1 ovarian
[19] = test system: K-562 leukemia
[20] = test system: KM12 colon
[21] = test system: LOX IMVI melanoma
[22] = test system: M14 melanoma
[23] = test system: MCF7 breast
[24] = test system: MDA-MB-231 breast
[25] = test system: MDA-MB-435
[26] = test system: MOLT-4 leukemia
[27] = test system: NCI-H226 lung
[28] = test system: NCI-H23 lung
[29] = test system: NCI-H460 lung
[30] = test system: NCI-H522 lung
[31] = test system: NCI/ADR-RES ovarian
[32] = test system: OVCAR-3 ovarian
[33] = test system: OVCAR-4 ovarian
[34] = test system: OVCAR-5 ovarian
[35] = test system: OVCAR-8 ovarian
[36] = test system: PC-3 prostate
[37] = test system: RPMI-8226 leukemia
[38] = test system: RXF 393 renal
[39] = test system: SF-268 CNS
[40] = test system: SF-295 CNS
[41] = test system: SF-539 CNS
[42] = test system: SK-MEL-28 melanoma
[43] = test system: SK-MEL-5 melanoma
[44] = test system: SK-OV-3 ovarian
[45] = test system: SN12C renal
[46] = test system: SNB-19 CNS
[47] = test system: SNB-75 CNS
[48] = test system: SR leukemia
[49] = test system: SW-620 colon
[50] = test system: T-47D breast
[51] = test system: TK-10 renal
[52] = test system: U251 CNS
[53] = test system: UACC-257 melanoma
[54] = test system: UACC-62 melanoma
[55] = test system: UO-31 renal
[56] = test system: CAKI-1 renal
[57] = test system: SK-MEL-2 melanoma

O=C(CNC(=O)c1cccc2ccccc12)Nc1ccccc1Oc1ccc(O)cc1
2.45 µM: TGI [41]
9.97 µM: TGI [2]
10.4 µM: TGI [37]
0.687 µM: TGI [25]
1.72 µM: TGI [38]
active: GI50 [25] 0.161 µM
> 25 µM: TGI [1] | TGI [3] | TGI [4] | TGI [5] | TGI [6] | TGI [8] | TGI [9] | TGI [10] | TGI [11] | TGI [12] | TGI [14] | TGI [15] | TGI [16] | TGI [17] | TGI [18] | TGI [19] | TGI [20] | TGI [21] | TGI [22] | TGI [23] | TGI [24] | TGI [26] | TGI [27] | TGI [28] | TGI [29] | TGI [30] | TGI [31] | TGI [32] | TGI [33] | TGI [34] | TGI [35] | TGI [36] | TGI [39] | TGI [40] | TGI [42] | TGI [43] | TGI [44] | TGI [45] | TGI [46] | TGI [47] | TGI [48] | TGI [49] | TGI [50] | TGI [51] | TGI [52] | TGI [53] | TGI [54] | TGI [55]
inactive: GI50 [1] 1.04 µM | GI50 [2] 1.01 µM | GI50 [3] 1.49 µM | GI50 [4] 1.86 µM | GI50 [5] 1.63 µM | GI50 [6] 0.94 µM | GI50 [7] 0.796 µM | GI50 [8] 1.15 µM | GI50 [9] 1.17 µM | GI50 [10] 8.98 µM | GI50 [11] 0.978 µM | GI50 [12] 0.909 µM | GI50 [13] 0.705 µM | GI50 [14] 1.35 µM | GI50 [15] > 25 µM | GI50 [16] 1.34 µM | GI50 [17] 0.992 µM | GI50 [18] 2.33 µM | GI50 [19] 0.497 µM | GI50 [20] 0.919 µM | GI50 [21] 1.72 µM | GI50 [22] 0.698 µM | GI50 [23] 0.847 µM | GI50 [24] 3.18 µM | GI50 [26] 1.21 µM | GI50 [27] 4.74 µM | GI50 [28] 2.16 µM | GI50 [29] 0.969 µM | GI50 [30] 0.852 µM | GI50 [31] 1.19 µM | GI50 [32] 0.744 µM | GI50 [33] 2.8 µM | GI50 [34] 6.3 µM | GI50 [35] 1.31 µM | GI50 [36] 1.31 µM | GI50 [37] 0.97 µM | GI50 [38] 0.5 µM | GI50 [39] 3.31 µM | GI50 [40] 0.62 µM | GI50 [41] 0.688 µM | GI50 [42] > 25 µM | GI50 [43] 0.846 µM | GI50 [44] 1.59 µM | GI50 [45] 2.19 µM | GI50 [46] 1.42 µM | GI50 [47] 0.591 µM | GI50 [48] 0.459 µM | GI50 [49] 0.911 µM | GI50 [50] 1.54 µM | GI50 [51] 16.9 µM | GI50 [52] 1.41 µM | GI50 [53] > 25 µM | GI50 [54] 1.17 µM | GI50 [55] 1.78 µM
2.06 µM: TGI [13]
3.56 µM: TGI [7]

O=C(O)c1ccc2nc(-c3ccccn3)c(-c3ccccn3)nc2c1
> 100 µM: TGI [1] | TGI [2] | TGI [4] | TGI [5] | TGI [56] | TGI [6] | TGI [7] | TGI [8] | TGI [9] | TGI [10] | TGI [11] | TGI [12] | TGI [13] | TGI [14] | TGI [15] | TGI [16] | TGI [17] | TGI [18] | TGI [19] | TGI [20] | TGI [21] | TGI [22] | TGI [23] | TGI [24] | TGI [25] | TGI [26] | TGI [27] | TGI [28] | TGI [29] | TGI [31] | TGI [33] | TGI [35] | TGI [36] | TGI [37] | TGI [38] | TGI [39] | TGI [40] | TGI [41] | TGI [57] | TGI [42] | TGI [43] | TGI [44] | TGI [46] | TGI [47] | TGI [48] | TGI [49] | TGI [50] | TGI [51] | TGI [52] | TGI [53] | TGI [54] | TGI [55]
